Drawing on patent US20100240642A1, “1H-Indole-2-Carboxylic Acid Derivatives Useful As PPAR Modulators” (SMITHKLINE BEECHAM CORPORATION, priority 2006, published 2010), this text covers Emax for 18 compounds.

SMILES strings stand for the structures. Where a name gives a salt, the structure may show the parent alone. Read-outs that look alike come from different tables or passages of the source.

For this experiment, the target named is T1, hPPARγ receptor (Homo sapiens, UniProt P37231).
T1 construct: expressed in transfected cells; host or cells: CV-1 (African Green Monkey kidney, ATCC CCL-70)
T1 sequence (P37231 172-475 isoform P37231-2): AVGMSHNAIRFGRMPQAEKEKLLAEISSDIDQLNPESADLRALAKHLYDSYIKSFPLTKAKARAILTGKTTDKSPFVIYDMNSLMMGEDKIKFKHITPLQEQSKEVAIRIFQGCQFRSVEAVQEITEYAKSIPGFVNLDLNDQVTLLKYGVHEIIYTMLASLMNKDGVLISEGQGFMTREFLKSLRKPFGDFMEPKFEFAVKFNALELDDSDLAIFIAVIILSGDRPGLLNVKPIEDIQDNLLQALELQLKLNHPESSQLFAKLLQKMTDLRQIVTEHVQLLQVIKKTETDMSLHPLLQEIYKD
In words: PPARγ Cell-based luciferase assay. From the text:
Plasmids—PCR primers containing Kpnl and BamHI restriction sites were used to amplify PPARγ ligand binding domain (LBD) fragment (172-475) from a full-length human clone. The LBD fragment was ligated into the multiple cloning site of pFA-CMV (Stratagene). The resulting construct (pFA-CMV-GAL4-hPPARγLBD carried a fusion of the LBD with the yeast-derived GAL4 DNA-binding domain under the control of the CMV immediate early promoter. Reporter construct UAStkLuc carries a single 17 bp (CGGAGTACTGTCCTCCG) upstream activating sequence (UAS), the tk minimal promoter, and the firefly luciferase gene. The integrity of each construct was confirmed by diagnostic restriction digestion and by sequencing. Plasmid DNA was prepared using Qiagen Maxi-Prep kits.
PPARγ Cell-based luciferase assay—African Green Monkey kidney cell line CV-1 (ATCC CCL-70) was maintained in Dulbecco's Modified Eagle's Medium (D-MEM) containing 10% fetal bovine serum, 2 mM glutamine, and 1% penicillin/streptomycin (pen/strep). In preparation for luciferase assays, CV-1 cells were grown in charcoal-stripped cell medium containing D-MEM/F-12 medium supplemented with 5% or 3% dextran-treated/charcoal-stripped (CS) fetal bovine serum, 2 mM glutamine, with or without 1% pen/strep, as described below. CS fetal bovine serum was purchased from Hyclone; all other cell culture reagents were from Gibco.
The luciferase protocol is a multi-day procedure. On day 1, confluent cells in maintenance medium were subcultured 1:10 into T-175 cm^2 flasks containing 50 mL of 3% CS medium with pen/strep. These flasks were allowed to incubate at 5% CO2 and 37° C. for 72 hours.
Cells were harvested by trypsinization and then transfected using FuGENE (Roche) according to the manufacturer's specifications. Briefly, each transfection contained 0.55 μg pFA_CMV_GAL4_hPPARγ_LBD plasmid, 10.9 μg UAStkLUC, and 24 μg pBluescript (carrier DNA). Plasmid DNA was mixed with FuGENE in OptiMEM-1 medium and incubated for 30 min at room temperature. During this incubation, cells were harvested into 3% CS medium without pen-strep and dispensed at 14 million cells per T-175 cm^2 flask. Transfection mixes were added to the flasks and incubated overnight at 5% CO2 and 37° C.
Transfected cells were added to 384-well plates containing pharmacological agents. Rosiglitazone standard was reconstituted in DMSO at 1 mM. For 11-point dose-response experiments, the compounds were 3-fold serially diluted in DMSO and then stamped to 384-well assay plates (NUNC, catalog #164564) at 0.5 μL/well using a Beckman FX. DMSO and agonist control compound Rosiglitazone (1 mM) were each stamped at 0.5 μL/well to columns 23 and 24, respectively, of the 384-well plates. Transfected cells were harvested in 5% CS medium with pen/strep and dispensed at 10,000 cells/well (50 μL) onto the prepared 384-well compound plates using a Titertek Multidrop. Following overnight incubation at 5% CO2 and 37° C., Steady-Glo reagent (Promega) was added to the assay plates using a Multidrop. Plates were incubated for 10 min to ensure complete cell lysis and read in a ViewLux (PerkinElmer). […] Partial agonism is defined here as 20-80% activation (relative to full agonist rosiglitazone) at concentrations of 10^−6 M or less.

[1] abbreviates: CV-1, read-out: agonism of the hPPARγ receptor (activation relative to full agonist rosiglitazone).
The mark [2] stands for this setting: CV-1 cells transfected with GAL4-hPPARγ LBD and UAStkLuc, at concentrations of 10^−6 M or less, read-out: agonism of the hPPARγ receptor (activation relative to full agonist rosiglitazone).

Consider `COCCOc1cc(Cn2c(C(=O)O)c(-c3ccc(C(C)(C)C)cc3)c3ccccc32)cc(OC(=O)N2CCN(C)CC2)c1` [Example 50, 3-[4-(1,1-dimethylethyl)phenyl]-1-[(3-{[2-(methyloxy)ethyl]oxy}-5-{[(4-methyl-1-piperazinyl)carbonyl]oxy}phenyl)methyl]-1H-indole-2-carboxylic acid], for which the Emax under setting [1] was 20 to 80%. As to `COCCOc1cc(Cn2c(C(=O)O)c(-c3ccc(C(C)(C)C)cc3)c3ccccc32)cc(OC(=O)N2CCCCC2)c1` [Example 51, 3-[4-(1,1-dimethylethyl)phenyl]-1-({3-{[2-(methyloxy)ethyl]oxy}-5-[(1-piperidinylcarbonyl)oxy]phenyl}methyl)-1H-indole-2-carboxylic acid], under setting [2], the Emax lay within 20 to 80%. `COCCOc1cc(Cn2c(C(=O)O)c(-c3ccc(C(C)(C)C)cc3)c3ccccc32)cc(OC(=O)N2CCOCC2)c1` [Example 52, 3-[4-(1,1-dimethylethyl)phenyl]-1-({3-{[2-(methyloxy)ethyl]oxy}-5-[(4-morpholinylcarbonyl)oxy]phenyl}methyl)-1H-indole-2-carboxylic acid]: under setting [2], the Emax is 20 to 80%. Take `COCCOc1cc(Cn2c(C(=O)O)c(-c3ccc(C(C)(C)C)cc3)c3ccccc32)cc(OC(=O)N2CCNC2=O)c1` [Example 53, 3-[4-(1,1-dimethylethyl)phenyl]-1-[(3-{[2-(methyloxy)ethyl]oxy}-5-{[(2-oxo-1-imidazolidinyl)carbonyl]oxy}phenyl)methyl]-1H-indole-2-carboxylic acid]: under setting [1], the Emax lay within 20 to 80%. As to `O=C(O)c1c(Cc2cccc(C(F)(F)F)c2)c2ccccc2n1Cc1cc(OCCn2cccc2)cc(OCC2CC2)c1` [Example 54, 1-[(3-[(cyclopropylmethyl)oxy]-5-{[2-(1H-pyrrol-1-yl)ethyl]oxy}phenyl)methyl]-3-{[3-(trifluoromethyl)phenyl]methyl}-1H-indole-2-carboxylic acid], the Emax under setting [2] lay in the range of 20 to 80%. The same measure, in the same setting: the result for `COCCOCCCOc1cc(Cn2c(C(=O)O)c(Cc3cccc(C(F)(F)F)c3)c3ccccc32)cc(OCC2CC2)c1` [Example 55, 1-({3-[(cyclopropylmethyl)oxy]-5-[(3-{[2-(methyloxy)ethyl]oxy}propyl)oxy]phenyl}methyl)-3-{[3-(trifluoromethyl)phenyl]methyl}-1H-indole-2-carboxylic acid] reads 20 to 80%; that for `COCCOc1cc(Cn2c(C(=O)O)c(Cc3cccc(C(F)(F)F)c3)c3ccccc32)cc(OCC2CC2)c1` [Example 56, 1-[(3-[(cyclopropylmethyl)oxy]-5-{[2-(methyloxy)ethyl]oxy}phenyl)methyl]-3-{[3-(trifluoromethyl)phenyl]methyl}-1H-indole-2-carboxylic acid], 20 to 80%; that for `CN(C)CCCOc1cc(Cn2c(C(=O)O)c(Cc3cccc(C(F)(F)F)c3)c3ccccc32)cc(OCC2CC2)c1` [Example 57, 1-[(3-[(cyclopropylmethyl)oxy]-5-{[3-(dimethylamino)propyl]oxy}phenyl)methyl]-3-{[3-(trifluoromethyl)phenyl]methyl}-1H-indole-2-carboxylic acid hydrochloride], 20 to 80%. The same measure, in the same setting: the result for `COCCOc1cc(Cn2c(C(=O)O)c(Cc3cccc(C(F)(F)F)c3)c3ccccc32)cc(OCCOC)c1` [Example 58, 1-[(3,5-bis{[2-(methyloxy)ethyl]oxy}phenyl)methyl]-3-{[3-(trifluoromethyl)phenyl]methyl}-1H-indole-2-carboxylic acid] reads 20 to 80%. For the compound `O=C(O)c1c(Cc2cccc(C(F)(F)F)c2)c2ccccc2n1Cc1cc(OCC2CC2)cc(OCC2CC2)c1` [Example 59, 1-({3,5-bis[(cyclopropylmethyl)oxy]phenyl}methyl)-3-{[3-(trifluoromethyl)phenyl]methyl}-1H-indole-2-carboxylic acid], the Emax under setting [2] was 20 to 80%. As for `COCCOc1cc(Cn2c(C(=O)O)c(-c3cc4ccccc4o3)c3ccccc32)cc(OCCOC)c1` [Example 60, 3-(1-benzofuran-2-yl)-1-[(3,5-bis{[2-(methyloxy)ethyl]oxy}phenyl)methyl]-1H-indole-2-carboxylic acid], the Emax under setting [2] was in the range of 20 to 80%. On the same count and under the same terms, the result for `COCCOc1cc(Cn2c(C(=O)O)c(Oc3ccc(C(C)(C)C)cc3)c3ccccc32)cc(OCCOC)c1` [Example 61, 1-[(3,5-bis{[2-(methyloxy)ethyl]oxy}phenyl)methyl]-3-{[4-(1,1-dimethylethyl)phenyl]oxy}-1H-indole-2-carboxylic acid] reads 20 to 80%; that for `COCCOc1cc(Cn2c(C(=O)O)c(Nc3ccc(C(C)(C)C)cc3)c3ccccc32)cc(OCCOC)c1` [Example 62, 1-[(3,5-bis{[2-(methyloxy)ethyl]oxy}phenyl)methyl]-3-{[4-(1,1-dimethylethyl)phenyl]amino}-1H-indole-2-carboxylic acid], 20 to 80%; that for `CC(C)(C)c1ccc(-c2c(C(=O)O)n(Cc3cc(C(F)(F)F)cc(C(F)(F)F)c3)c3ccccc23)cc1` [Example 63, 1-{[3,5-bis(trifluoromethyl)phenyl]methyl}-3-[4-(1,1-dimethylethyl)phenyl]-1H-indole-2-carboxylic acid], 20 to 80%.

`COCCOc1cc(Cn2c(C(=O)O)c(-c3ccc(C(C)(C)C)cc3)c3ccccc32)cc(C(F)(F)F)c1` [Example 64, 3-[4-(1,1-dimethylethyl)phenyl]-1-{[3-{[2-(methyloxy)ethyl]oxy}-5-(trifluoromethyl)phenyl]methyl}-1H-indole-2-carboxylic acid]: the Emax under setting [2] fell in the range of 20 to 80%. With `CC(C)(C)c1ccc(-c2c(C(=O)O)n(Cc3cc(OCC4CC4)cc(C(F)(F)F)c3)c3ccccc23)cc1` [Example 65, 1-{[3-[(cyclopropylmethyl)oxy]-5-(trifluoromethyl)phenyl]methyl}-3-[4-(1,1-dimethylethyl)phenyl]-1H-indole-2-carboxylic acid], the Emax under setting [2] fell in the range of 20 to 80%. Take `COCCOc1cc(Cn2c(C(=O)O)c(-c3ccc(C(C)(C)C)cc3)c3ccccc32)cc(OCCOC)c1` [Example 66, 1-[(3,5-bis{[2-(methyloxy)ethyl]oxy}phenyl)methyl]-3-[4-(1,1-dimethylethyl)phenyl]-1H-indole-2-carboxylic acid]: under setting [2], the Emax fell in the range of 20 to 80%.

Take `COCCOc1cc(Cn2c(C(=O)O)c(-c3ccc(C(C)(C)C)cc3)c3ccccc32)cc(OCc2ccccc2)c1` [Example 67, 3-[4-(1,1-dimethylethyl)phenyl]-1-({3-{[2-(methyloxy)ethyl]oxy}-5-[(phenylmethyl)oxy]phenyl}methyl)-1H-indole-2-carboxylic acid]: the Emax under setting [2] lay within 20 to 80%.
